# Results reported in patent US9937180B2, “Constrained tricyclic sulfonamides” (ICAHN SCHOOL OF MEDICINE AT MOUNT SINAI, priority 2014, dated 2018).
# “And” between values parts separate entries of the source, which are not always exact repeats. Identical values can stand only once.
# Columns and labels:
# H1650 = H1650 Cell Viability Assays (GI50 Determination), MTT; assay type: cell-based; conditions: Homo sapiens, NCI-H1650, H1650 cells, 48 hours after drug treatment
# Protocol: H1650 Cell Viability Assays (GI50 Determination)
# Cell viability assays were performed according to Denizot, F. and R. Lang, Rapid colorimetric assay for cell growth and survival: Modifications to the tetrazolium dye procedure giving improved sensitivity and reliability Journal of Immunological Methods, 1986. 89[…]: p. 271-277.
# Cells were plated at 150,000 cells per well in a 12 well plate. Twenty-four hours after plating, cells were treated as described with increasing concentrations of drug and control. Forty-eight hours after drug treatment, cells were treated with 100 uL of 3-(4,5-Dimethylthiazol-2-yl)-2,5-diphenyltetrazolium bromide (MTT) and incubated for 2 hours at 37 C. The MTT solution was subsequently replaced with 300 uL of n-propyl alcohol and re-aliquoted to a 96 well plates. Spectrophotometric analysis of each solution was performed using a 96 well plate reader at 600 nm in triplicate.
# Molt4 cells = assay: MTS Cell Proliferation Assay (CellTiter96 AQueous); assay type: cell-based; conditions: Homo sapiens, MOLT-4, 48 hours, average of 3 biological replicates
# Protocol: MTS Cell Proliferation Assay GI50 for Example 3a and 3b for Molt4 cells was measured using the CellTiter96 AQueous Non-Radioactive Cell Proliferation Assay (Promega). Briefly, two technical replicates of 1×10^5 cells suspended in 50 μL RPMI-1640 media were pipetted per well into a 96-well plate for each condition. An equal volume of Example 3a or 3b was dissolved in media or vehicle control (DMSO) was added to each well for final concentration of 0, 5, 10, 15, 20, 30, 40, or 80 μM of 3a or 3b. Cells were allowed to grow for 48 hours at 37° C. with 5% CO2, after which 20 μL of MTS/PMS solution was added to each well and cells were incubated for an additional 4 hrs. At the end of the incubation period, A490 was read on a Biotek uQuant spectrophotometer to measure formazen production. Relative viability was calculated as A490 for each drug condition relative to vehicle alone.
# [1] = tested on: prostate cancer cell line LNCaP; assay: Mouse Tumor Assay: subcutaneous xenograft of prostate cancer cell line LNCaP; assay type: in vivo; conditions: LNCaP xenograft in male SCID nude castrated mice, 100 mg/kg BID oral gavage
# Protocol: (§1) Mouse Tumor Assay To assess the in vivo effects of the compounds, subcutaneous xenograft of prostate cancer cell line LNCaP was generated. Cells (5×10^6, 0.1 mL in 1:1 Matrigel:Media) were injected into the right flank of 8-week-old male SCID nude castrated mice (NCI). Tumor volume was assessed three times a week by caliper measurement. Mice were randomized to treatment groups based on initial tumor volume average of 247 mm^3 per group. Mice were dosed by oral gauvage with 100 mg/kg of Example 3a twice daily (BID) as a suspension in 0.1% Tween80/0.5% sodium carboxymethylcellulose (CMC) in water. […] Mouse body weights were recorded weekly and percentage of mice body weights during treatment was calculated as: weight at each time point/initial weight×100. […] Mice underwent treatment for 31 days and were sacrificed 2 hours after the last dose. Tumors were then excised and cut for both formalin-fixation and snap frozen in liquid nitrogen. No statistically significant toxicity was observed as judged from animal body weights of compound treated groups versus vehicle control group.
# [2] = Observation for signs of toxicity and body weights in the mouse tumor assay; assay type: in vivo; conditions: mice, 100 mg/kg BID oral, 31 days
# Protocol: as §1, with “To” for “Mouse Tumor Assay To”
Structure (SMILES),GI50 (H1650) [µM],also measured
O=S(=O)(N[C@H]1CCC[C@@H](N2c3ccccc3CCc3ccccc32)[C@@H]1O)c1ccc(OC(F)(F)F)cc1 [Example 3a],5,"GI50 (Molt4 cells): 6 µM; Mean Tumor Volume(T) ([1]; 31 days): 485 mm³; % T/C ([1]; end of experiment (31 days), tumor versus vehicle control, 100 mg/kg): 35% and 34.6%; signs of toxicity (mucous diarrhea, abdominal stiffness and weight loss) [2]: no adverse signs were observed"
"COc1ccc(S(=O)(=O)N[C@H]2CCC[C@@H](N3c4ccccc4CCc4ccccc43)[C@@H]2O)cc1 [Example 23, N-((1S,2S,3R)-3-(10,11-dihydro-5H-dibenzo[b,f]azepin-5-yl)-2-hydroxycyclohexyl)-4-methoxybenzenesulfonamide]",20,–
"CC(C)(O)c1ccc(S(=O)(=O)N[C@H]2CCC[C@@H](N3c4ccccc4CCc4ccccc43)[C@@H]2O)cc1 [Example 27, N-((1S,2S,3R)-3-(10,11-dihydro-5H-dibenzo[b,f]azepin-5-yl)-2-hydroxycyclohexyl)-4-(2-hydroxypropan-2-yl)benzenesulfonamide]",15,–
"O=S(=O)(N[C@H]1CCC[C@@H](N2c3ccccc3CCc3ccccc32)[C@@H]1O)c1ccc(OC(F)F)cc1 (stereo in doubt) [Example 32, 4-(difluoromethoxy)-N-(3-(10,11-dihydro-5H-dibenzo[b,f]azepin-5-yl)-2-hydroxycyclohexyl)benzenesulfonamide]",10,–
"O=S(=O)(N[C@H]1CCCC(N2c3ccccc3CCc3ccccc32)[C@@H]1O)c1ccc(OC(F)(F)F)cc1 (relative stereo) [Example 2, N-((1,2-trans)-3-(10,11-dihydro-5H-dibenzo[b,f]azepin-5-yl)-2-hydroxycyclohexyl)-4-(trifluoromethoxy)benzenesulfonamide]",15,–
"O=S(=O)(N[C@@H]1CCC(N2c3ccccc3CCc3ccccc32)[C@H]1O)c1ccc(Cl)cc1 (relative stereo) [Example 18, 4-chloro-N-((1S,2S,3R)-rel-3-(10,11-dihydro-5H-dibenzo[b,f]azepin-5-yl)-2-hydroxycyclopentyl)benzenesulfonamide]",20,–
"CC(=O)c1ccc(S(=O)(=O)N[C@H]2CCC[C@@H](N3c4ccccc4CCc4ccccc43)[C@@H]2O)cc1 [Example 26, 4-Acetyl-N-((1S,2S,3R)-3-(10,11-dihydro-5H-dibenzo[b,f]azepin-5-yl)-2-hydroxycyclohexyl)benzenesulfonamide]",20,–
"O=S(=O)(N[C@H]1CCC[C@@H](N2c3ccccc3C=Cc3ccccc32)[C@@H]1O)c1ccc(OC(F)(F)F)cc1 (racemic) [Example 25, rac-N-((1S,2S,3R)-3-(5H-dibenzo[b,f]azepin-5-yl)-2-hydroxycyclohexyl)-4-(trifluoromethoxy)benzenesulfonamide]",10,–
"[N-]=[N+]=Nc1ccc(S(=O)(=O)N[C@@H]2CCCC(N3c4ccccc4CCc4ccccc43)[C@H]2O)cc1 (stereo in doubt) [Example 5, N-(3-(10,11-dihydro-5H-dibenzo[b,f]azepin-5-yl)-2-hydroxycyclohexyl)-4-(azido)benzenesulfonamide]",15,–
"O=S(=O)(N[C@@H]1CCC(N2c3ccccc3CCc3ccccc32)[C@H]1O)c1ccc(OC(F)(F)F)cc1 (relative stereo) [Example 17, N-((1S,2S,3R)-rel-3-(10,11-dihydro-5H-dibenzo[b,f]azepin-5-yl)-2-hydroxycyclopentyl)-4-(trifluoromethoxy)benzenesulfonamide]",15,–

# The remaining molecules from weak to strong by GI50 (H1650), led by results:
GI50 (H1650) [µM],Structure (SMILES),also measured
10,"O=S(=O)(N[C@@H]1CCCC(N2c3ccccc3Sc3ccccc32)[C@H]1O)c1ccc(Cl)cc1 (relative stereo) [Example 21, 4-chloro-N-((1R,2R,3S)-rel-2-hydroxy-3-(10H-phenothiazin-10-yl)cyclohexyl)benzenesulfonamide]",–
10,"O=S(=O)(N[C@@H]1CCCC(N2c3ccccc3CCc3ccccc32)[C@H]1O)c1ccc(Cl)cc1 (relative stereo) [Example 4, N-(3-(10,11-dihydro-5H-dibenzo[b,f]azepin-5-yl)-2-hydroxycyclohexyl)-4-(chloro)benzenesulfonamide]",–
7,"O=S(=O)(N[C@H]1CCC[C@@H](N2c3ccc(F)cc3CCc3cc(F)ccc32)[C@@H]1O)c1ccc(OC(F)(F)F)cc1 [Example 22, N-((1S,2S,3R)-3-(2,8-difluoro-10,11-dihydro-5H-dibenzo[b,f]azepin-5-yl)-2-hydroxycyclohexyl)-4-(trifluoromethoxy)benzenesulfonamide]",–
5,"O=S(=O)(N[C@H]1CCC[C@@H](N2c3ccccc3CCc3ccccc32)[C@@H]1O)c1ccc(OC(F)(F)F)c(Cl)c1 (stereo in doubt) [Example 33, 3-chloro-N-(3-(10,11-dihydro-5H-dibenzo[b,f]azepin-5-yl)-2-hydroxycyclohexyl)-4-(trifluoromethoxy)benzenesulfonamide]",–
5,O=S(=O)(N[C@@H]1CCC[C@H](N2c3ccccc3CCc3ccccc32)[C@H]1O)c1ccc(OC(F)(F)F)cc1 [Example 3b],GI50 (Molt4 cells): 8 µM
5,"O=S(=O)(N[C@H]1CCC[C@@H](N2c3ccccc3CCc3cc(F)ccc32)[C@@H]1O)c1ccc(OC(F)(F)F)cc1 [Example 24, N-((1S,2S,3R)-3-(2-fluoro-10,11-dihydro-5H-dibenzo[b,f]azepin-5-yl)-2-hydroxycyclohexyl)-4-(trifluoromethoxy)benzenesulfonamide]",–
5,"O=S(=O)(N[C@@H]1CCCC(N2c3ccccc3Sc3ccccc32)[C@H]1O)c1ccc(OC(F)(F)F)cc1 (relative stereo) [Example 20, N-((1R,2R,3S)-rel-2-hydroxy-3-(10H-phenothiazin-10-yl)cyclohexyl)-4-(trifluoromethoxy)benzenesulfonamide]",–
5,"O=S(=O)(N[C@@H]1CCCC(N2c3ccccc3CCc3ccccc32)[C@H]1O)c1ccc(OC(F)(F)F)cc1 (relative stereo) [Example 1, N-((1,2-trans)-3-(10,11-dihydro-5H-dibenzo[b,f]azepin-5-yl)-2-hydroxycyclohexyl)-4-(trifluoromethoxy)benzenesulfonamide]",–
5,"O=S(=O)(N[C@H]1CCC[C@@H](N2c3ccccc3CCc3ccccc32)[C@@H]1O)c1ccc(C(F)(F)C(F)(F)F)cc1 [Example 31, N-(3-(10,11-dihydro-5H-dibenzo[b,f]azepin-5-yl)-2-hydroxycyclohexyl)-4-(perfluoroethyl)benzenesulfonamide]",–
5,"O=S(=O)(N[C@H]1CCC[C@@H](N2c3ccccc3CCc3ccccc32)[C@@H]1O)c1ccc(SC(F)(F)F)cc1 [Example 28, N-(3-(10,11-dihydro-5H-dibenzo[b,f]azepin-5-yl)-2-hydroxycyclohexyl)-4-((trifluoromethyl)thio)benzenesulfonamide]",–
5,"O=S(=O)(N[C@H]1CCC[C@@H](N2c3ccccc3CCc3ccccc32)[C@@H]1O)c1ccc(CC(F)(F)F)cc1 [Example 30, N-(3-(10,11-dihydro-5H-dibenzo[b,f]azepin-5-yl)-2-hydroxycyclohexyl)-4-(2,2,2-trifluoroethyl)benzenesulfonamide]",–
5,"O=S(=O)(N[C@H]1CCC[C@@H](N2c3ccccc3CCc3ccccc32)[C@@H]1O)c1ccc(OC(F)(F)F)cc1Cl (stereo in doubt) [Example 29, 2-chloro-N-(3-(10,11-dihydro-5H-dibenzo[b,f]azepin-5-yl)-2-hydroxycyclohexyl)-4-(trifluoromethoxy)benzenesulfonamide]",–
